The target in data set [1] is T1, PDPN recombinant proteins (Homo sapiens, UniProt Q86YL7).
T1 construct: PDPN recombinant proteins were coated on the CM7 sensor chip
Description: SPR assay, binding to immobilized PDPN. The settings on record: CM7 chip, 100 μM to 0.00128 μM. The procedure: SPR assay was conducted on a GE Biacore 3000 (Cytiva, USA) using a CM7 sensorchip for protein immobilization. All experimental steps were performed at a temperature of 24 °C and samples were kept at 4 °C. CY12-RP1 and CY12-RP2 peptides were diluted in the running buffer ([…] saline buffer, HBS-EP) at the final concentrations ranging from 100 μM to 0.00128 μM. The peptides were injected at a rate of 30 μL/min through immobilized PDPN for 240 s for association. All regenerations were introduced at a flow rate of 30 µL/min. SPR assay was performed in triplicate and the results were analyzed using Biacore 3000 software.
To further investigate the potential anti-tumor effect of PDPN antagonist on melanoma, we used a Ph.D.TM-12 Phage Display Peptide Library to screen for a PDPN antagonist peptide. After four rounds of biopanning under progressively stringent selection conditions in vitro, seven clones with individual amino acid sequences were obtained (Fig. 3A). To assess the anti-tumor effects of these seven peptides on melanoma cells, the proliferation of A375 and A875 cell lines after treating with various concentration peptides were examined by CCK8 assay. […] We then performed immunofluorescence, SPR assay, and flow cytometry to identify the binding specificity of CY12-RP1 and CY12-RP2 with PDPN in melanoma cells. […]
Background: SPR reads the build-up and loss of mass on a sensor chip optically.

Data set [2] concerns A375 cells. The data set can be described thus: Wound healing (migration), A375. Type of data set: cell-based. Conditions: wound healing, 0, 5, 25 μM, 24 h or 48 h. The procedure: A375 GFP, A875 GFP, A375 PDPN^−/−, and A875 PDPN^+/+ cells were all seeded in 12-well plates at a density of 5 × 10^5 cells/well. When the cells reached 100% confluence the next day, the straight wound was scraped in each cultured well with a 20 µL pipette tip. Then the cells were washed repeatedly with complete DMEM to remove the cellular debris, and the medium was changed to a low serum medium containing 0.05% FBS. The scratch-treated cells were subsequently cultured for an additional indicated time and imaged at 0 h, 12 h, 24 h and 48 h. Quantification of wound closure was accomplished by measuring the distance between the phase contrast images’ anterior edges of the contralateral surfaces using ImageJ software. As for peptide (CY12-RP2) function experiments, images of phase contrast for A375 GFP and A875 GFP cells were captured at 0 h before peptide administration. The cells were then treated with CY12-RP2 (0 μM, 5 μM, 25 μM) for 24 h or 48 h, and then images were acquired again. Handling of the experimental results were carried out as previously described.

Data set [3] relates to A375 melanoma xenograft. Description: A375 subcutaneous xenograft, BALB/c nude mice. The settings on record: tail vein, every two days for 15 days. It is filed as in vivo. On the procedure:
(§1) Tumorigenesis assays were conducted in vivo using BALB/c nude mice and BALB/c mice from Guangdong Medical Laboratory Animal Center. The animal study was reviewed and approved by the Administrative Committee on Animal Research of Shenzhen International Graduate School, Tsinghua University (Ethical Development No. 16, 10 November 2021). Samples with 5 × 10^5 A375 or B16F10-Luc melanoma cells were diluted in 100 μL PBS and injected subcutaneously into 6- to 8-week-old female BALB/c nude mice or BALB/c mice. 5 days later, the mice were treated with CY12-RP2 by tail vein administration at various doses (25 mg/kg and 100 mg/kg) every two days. The tumor volume and body weight were measured every 2 days, with the calculation of the tumor volume under the assumption of an ellipsoidal tumor as: tumor volume = length × width^2/2. Tumors from BALB/c nude mice were collected and photographed on day 21, while tumors from the allograft mouse model were measured using bioluminescence imaging. The blood collected from the eyes of BALB/c nude mice were stored at 4 °C for 24 h and then centrifuged for 15 min under the indicated conditions (4 °C, 3000 rpm). The supernatant was collected and assayed for drug toxicity using kits, including AST, ALT, TG, and γ-GT. […]

Data set [4] is described as follows: Serum hepatic function index, xenograft nude mice (ELISA). Type of data set: in vivo, BALB/c nude mice. The settings on record: vs control, 25 and 100 mg/kg. The procedure: as §1
Fig. S5: Effects and toxicity of CY12-RP2 in vivo […]
(E) Serum ALT, AST, TG, and γ-GT levels of the orthotopic xenografts model were
measured by ELISA. (F) H&E staining of liver, heart, spleen, lung, and kidney treated
In general terms: An ELISA detects its analyte on a solid surface through an enzyme-linked reagent.

Peptide text beside a SMILES is read from it.

T1 sequence (Q86YL7 23-162): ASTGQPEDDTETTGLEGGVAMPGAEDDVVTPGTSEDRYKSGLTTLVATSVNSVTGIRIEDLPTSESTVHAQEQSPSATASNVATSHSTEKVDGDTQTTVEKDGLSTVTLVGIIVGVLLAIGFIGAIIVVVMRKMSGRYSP

For the compound `CC(C)C[C@H](NC(=O)[C@H](Cc1ccc(O)cc1)NC(=O)[C@@H](N)[C@@H](C)O)C(=O)N[C@@H](CS)C(=O)N[C@H](C(=O)N[C@@H](C)C(=O)N[C@@H](CS)C(=O)N[C@@H](CC(=O)O)C(=O)N[C@@H](Cc1ccc(O)cc1)C(=O)N[C@H](C(=O)N[C@@H](Cc1c[nH]cn1)C(=O)N[C@@H](Cc1c[nH]cn1)C(=O)O)[C@@H](C)O)[C@@H](C)O` [CY12-RP2] (H-TYLCTACDYTHH-OH; N-terminus and C-terminus assumed), in data set [1], the “binding to PDPN (in words)” value is “bound to PDPN in a dose-dependent manner”. The migration entry in data set [2] was “inhibited migration at the corresponding time both in A375 and A875 cells, but A375 cells were more susceptible”. In addition, in data set [3] (25 mg/kg and 100 mg/kg, especially 100 mg/kg), the tumor growth entry was “significantly inhibited the tumor growth”. In addition, the mean body weight result in data set [3] (nude mice, 25 and 100 mg/kg) is on record as “no significant change”. Moreover, in data set [4], the ALT entry is “not significantly changed”, the AST entry is listed as “not significantly changed”, the TG entry was “increased” and the γ-GT entry is “increased”.
